Measured values: US6384052B1, “Anticoccidial compounds” (Merck & Co., Inc., priority 1999, dated 2002)

What was measured:
[1] = tested on: Eimeria acervulina, E. tenella; test: Anticoccidiosis assay (oocyst production in infected chickens on medicated diet); assay type: in vivo, White Leghorn chickens; design: key: at least 80% reduction in oocyst production are considered active; those with 50-79% are considered partially active; those with <50% are considered inactive; details: 100 ppm in diet; chickens infected with E. acervulina or E. tenella
Experimental: (§1) Compound of the present invention and 2-(4-fluorophenyl)-5-(N-methylpiperidin-4-yl)-3-(4-pyridyl)pyrrole were evaluated in anticoccidiosis assay and toxicology studies. In these studies, medicated diets were prepared by dissolving the proper quantity of the test compound in dimethylsulfoxide or acetone, mixing the resultant solution into a few grams of the basal diet, and then placing the mixture under a fume hood for dehydration. The dry mixture is made into a uniform premix with an electric grinder, and then blended with the desired quantity of basal diet for the final formulation in a commercial bowl mixer.
One-day-old White Leghorn chickens are obtained from a commercial hatchery and acclimated in a holding room. At three days of age the test animals are selected by weight, wingbanded, and randomly placed on medicated or control diets for the duration of the experiment. One or two replicates of two birds are utilized per treatment. Following 24 h premedication, in each replicate one bird is infected with Eimeria acervulina, the other bird is infected with E. tenella. Both strains of Eimeria are sensitive to all anticoccidial products, and have been maintained in laboratory conditions for over 25 years. […] The measured parameters are weight gain, feed consumption and oocyst production. E. tenella lesion scores are also recorded for background information. […]

[2] = Toxicity Evaluation (38-day medicated diet, liver necrosis and urate crystal deposition); assay type: in vivo, male broiler chickens; details: 125 ppm in diet; for chickens with urate crystal deposition in the kidneys: affected/examined
Experimental: as §1
Day-old male broiler chickens are received on Day 0 of the trial, weighed, wingbanded, and placed on medicated or control diet in standard battery cages. Three treatments are used in the study: (A) medicated diet containing 125 ppm of 2-(4-fluorophenyl)-5-(N-methylpiperidin-4-yl)-3-(4-pyridyl)pyrrole; (B) medicated diet containing 125 ppm of 2-(4-fluorophenyl)-5-(N-ethylpiperidin-4-yl)-3-(4-pyridyl)pyrrole; and (C) no medication. A total of 48 chickens are utilized per treatment. Of these, 12 birds (2 replicates of 6) are examined on D7, D14, D24 and D38 for liver necrosis and urate crystal deposition. Growth rates, feed efficiency and plasma levels are determined for background information. The trial is terminated on D38.

[3] = Acute Toxicity Evaluation (intraperitoneal, twice a day for three days); assay type: in vivo; details: 100 mg/kg/day intraperitoneally, necropsy on day 4, two chickens per group
Experimental: For acute toxicity evaluation, chickens are dosed intraperitoneally twice a day at desired dose for three days. On day 4 birds are necropsied and examined for gross lesions and weight suppression. Two chickens are used in each treatment group.

## CCN1CCC(c2cc(-c3ccncc3)c(-c3ccc(F)cc3)[nH]2)CC1 [2-(4-fluorophenyl)-5-(N-ethylpiperidin-4-yl)-3-(4-pyridyl)pyrrole]
[1]
  anticoccidial activity (reduction in oocyst production): active
[2]; 12 birds examined on each of D7, D14, D24 and D38
  chickens showing liver necrosis or urate crystal deposition: None
[3]
  liver necrosis / gross liver lesions at necropsy: none

## CN1CCC(c2cc(-c3ccncc3)c(-c3ccc(F)cc3)[nH]2)CC1 [2-(4-fluorophenyl)-5-(N-methylpiperidin-4-yl)-3-(4-pyridyl)pyrrole]
[1]
  anticoccidial activity (reduction in oocyst production): active
[2]; examined on D14
  chickens with urate crystal deposition in the kidneys: 3/12
[2]; examined on D38
  chickens with urate crystal deposition in the kidneys: 4/12
[3]
  liver necrosis / gross liver lesions at necropsy: demonstrated gross liver lesions
